Test results published in US11447482B1, “Imidazopyridine and oxazolopyridine derivatives and analogs thereof, methods of preparation thereof, methods of HIF-2A pathway inhibition, and induction of ferroptosis” (KUDA Therapeutics, Inc., priority 2019, dated 2022).

Columns and labels:
Assay type in all cases: cell-based, human
[1] = tested on: GPX4; experiment: Western blot of treated 786-0 cells: GPX4; settings: higher concentrations of compound, FIG. 4 Part D
Procedure: (§1) Western blots were performed to determine the effects of the compounds on levels of HIF-2α and other relevant proteins. 786-0 (pVHL deficient clear cell kidney cancer cells) were purchased from ATCC were plated at 1×10E5 cells/well in 2 ml DMEM with 10% FBS/well in 6-well tissue culture plates. Cells were allowed to adhere overnight in a humidified incubator at 37° C. with 5% CO2, after which the appropriate concentrations of compounds in DMSO were added. DMSO concentrations were kept constant in all wells. After 24 hour's exposure to the compounds, cells were lysed and subjected to western blotting according to standard protocols (Polek, Talpaz et al. 2003). Antibodies for HIF-2α and Glyceraldehyde 3-Phosphate Dehydrogenase (GAPDH) were purchased from Cell Signaling Technology (Danvers, Mass.), whereas antibodies to iron responsive element binding protein 2 (IRP2) and Glutathione Peroxidase 4 (GPX4) were from Santa Cruz Biotechnology (Dallas, Tex.) and R&D Systems, Inc (Minneapolis, Minn.). Representative data in FIG. 3 show a dose-dependent effect of compounds in decreasing HIF-2α. Compounds also impact cellular iron sensing given by increased IRP2, which taken together indicate that cells sense decreased amounts of available iron. Representative data shown in FIG. 5 Part C show a dose dependent effect of the compounds on GPX4, which may indicate decreased resistance to ferroptosis.

[2] = tested on: 786-0 CCRCC cells; experiment: ICP-MS of cellular iron, zinc and copper; settings: 786-0 cells, 24 hours, 1.5 μM KD002 or KD021, 2.5 μM KD025HCl, versus DMSO
Procedure: These studies were performed to determine the content of iron and other transition metals in cells after exposure the compounds described herein. 786-0 cells were seeded at 1.5 million cells/flask in T75 cm^2 flasks in DMEM+10% FBS, and allowed to adhere overnight. Cells were then treated with indicated concentrations of compounds in DMSO or DMSO alone (vehicle) for a further 24 hours, after which cells were detached by trypsinization, counted, washed twice in PBS and pelleted. Experiments were performed using three replicate T75 cm^2 flasks per condition. A 5:1 mixture of nitric acid (OPTIMA Grade, 70%, Fisher Scientific) and ultrapure hydrogen peroxide (ULTREX II, 30%, Fisher Scientific) was added to cell pellets. This mixture was allowed to digest overnight, heated until dry, and resuspended in 2% nitric acid for analysis using an Agilent 7900 ICP-MS (Agilent Technologies, Santa Clara, Calif.). Calibration standard solutions for determination of Fe were prepared from Agilent multi-element calibration standard-2A. An Agilent Environmental Calibration Standard was used as an independent control. PBS-only control digestions were used to measure background. Metal readings were normalized to cell number. Data obtained from these studies for three replicate readings (with SEM) are shown in FIG. 4, which show an increase in cellular iron (Fe) content after treatment with indicated compounds.

[3] = tested on: HIF-2α; experiment: Western blot of treated 786-0 cells: HIF-2α; settings: 786-0 CCRCC cells, 24 hours
Procedure: as §1

`COc1ccc(-c2nnc(Nc3nc4c(OC)nccc4[nH]3)o2)cc1OC` [KD025HCl, N-(4-Methoxy-1H-imidazo[4,5-c]pyridin-2-yl)-5-(3,4-dimethoxyphenyl)-1,3,4-oxadiazol-2-amine] was tested. Which “GPX4 protein (western blot)” value [1] did it give?
Its value is “decrease”.

And the “cellular copper (Cu) content (ICP-MS)” value [2]?
The value was “increases”.

And the “cellular iron (Fe) content (ICP-MS)” value [2]?
The value was “increases”.

What about the “cellular zinc (Zn) content (ICP-MS)” value [2] of the same compound?
The value was “increases”.

What about the “HIF-2α protein relative to GAPDH (western blot)” value [3] of the same compound?
The value was “decreases”.
